Experimental data from patent publication US20230407243A1, “GENETIC PLATFORM TO INVESTIGATE THE FUNCTIONS OF BACTERIAL DRUG EFFLUX PUMPS” (priority 2022, published 2023).
Read-outs that look alike come from different tables or passages of the source.

Legend:
Type in all cases: cell-based, Escherichia coli
E. coli EKO-35 = test: microbe, parasite or virus in culture; settings: for MIC: Escherichia coli, EKO35, technical duplicate
Outline: (§1)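 MIC derived from pre-incubation-corrected OD600 after 18 h growth at 37° C. (900 rpm) in MHB II. Inoculum was cells from 18 h LB culture adjusted to OD600 ~1.0 in PBS, then diluted 1/2000; compounds two-fold serially titrated in duplicate, DMSO as solvent control.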

E. coli ΔtolC = test: microbe, parasite or virus in culture
Outline: as §1

[1] = test system: wild-type E. coli K-12 str. BW25113; test: microbe, parasite or virus in culture; settings: Escherichia coli, BW25113, technical duplicate
Outline: as §1

EKO-35 araC::acrBD408A = test: MIC susceptibility profiling, efflux platform; settings: EKO-35 araC::acrBD408A compared to EKO-35
Outline: as §1

EKO-35 araC::acrEF = test: MIC susceptibility profiling, efflux platform; settings: Escherichia coli; Table 13A; non-porinated; technical duplicate; read-out: Minimum Inhibitory Concentration, EKO-35 araC::acrEF
Outline: as §1

EKO-35 araC::mdtBC = test: MIC susceptibility profiling, efflux platform
Outline: as §1

wild-type (WT) K-12-Pore = test: microbe, parasite or virus in culture; settings: Escherichia coli, technical duplicate
Outline: (§2)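 MIC values come from background-corrected OD600 readings (pre-incubation OD subtracted) after 18 h at 37 °C and 900 rpm in MHB II. Compounds were tested in duplicate as 2-fold dilutions. The inoculum came from 18 h LB cultures adjusted to OD600 ~1.0 and diluted 1/2000, and the pore-bearing strains were vancomycin-checked beforehand.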

ΔtolC-Pore = test: microbe, parasite or virus in culture
Outline: as §2

EKO-35-Pore = test: MIC susceptibility profiling, porinated strain; settings: for MIC: Escherichia coli, technical duplicate
Outline: as §2

EKO-35 araC::acrB Pore = test: MIC susceptibility profiling, porinated efflux platform
Outline: as §2

[2] = test system: EKO-35 araC::acrBD408A Pore; test: as above
Outline: as §2

EKO-35 araC::acrD Pore = test: as above
Outline: as §2

EKO-35 araC::acrEF Pore = test: as above
Outline: as §2

EKO-35 araC::emrAB Pore = test: as above
Outline: as §2

EKO-35 araC::emrKY Pore = test: as above
Outline: as §2

EKO-35 araC::macAB Pore = test: as above
Outline: as §2

EKO-35 araC::mdtBC Pore = test: as above
Outline: as §2

EKO-35 araC::mdtEF Pore = test: as above
Outline: as §2

EKO-35 araC::mexCD Pore = test: as above
Outline: as §2

C[C@@H]1O[C@@H]1P(=O)(O)O [fosfomycin]
Fold change of MICs (E. coli EKO-35; EKO-35 compared to EKO-35 (reference)): 1 fold
MIC (E. coli EKO-35; Table 10, without pore, read-out: Minimum inhibitory concentration (MIC), EKO-35): 3.12 µg/mL
MIC (E. coli EKO-35; Table 13A, non-porinated, read-out: Minimum Inhibitory Concentration, EKO-35): 3.12 µg/mL
MIC (E. coli ΔtolC; Escherichia coli, 18 h, read-out: Minimum Inhibitory Concentration, ΔtolC): 6.25 µg/mL
Minimum inhibitory concentration (MIC), ΔtolC (E. coli ΔtolC; Table 10, without pore, technical duplicate): 6.25 µg/mL
MIC ([1]; Table 10, without pore, read-out: Minimum inhibitory concentration (MIC), K-12): 6.25 µg/mL
MIC ([1]; Table 13A, non-porinated, read-out: Minimum Inhibitory Concentration, K-12): 6.25 µg/mL
Fold change of MICs (EKO-35 araC::acrBD408A): 1 fold
MIC (EKO-35 araC::acrEF): 1.56 µg/mL
Fold change of MICs (EKO-35 araC::mdtBC; EKO-35 araC::mdtBC compared to EKO-35): 1 fold
MIC (EKO-35 araC::mdtBC; Escherichia coli, Table 13B, non-porinated, technical duplicate, read-out: Minimum Inhibitory Concentration, EKO-35 araC::mdtBC): 1.56 µg/mL
MIC (wild-type (WT) K-12-Pore; Table 10, with pore, read-out: Minimum inhibitory concentration (MIC), Pore K-12): 3.12 µg/mL
MIC (wild-type (WT) K-12-Pore; Table 14A, porinated, read-out: Minimum inhibitory concentration, K-12 (WT)-Pore): 3.12 µg/mL
MIC (ΔtolC-Pore; Escherichia coli, 18 h, read-out: Minimum inhibitory concentration, ΔtolC-Pore): 3.12 µg/mL
Minimum inhibitory concentration (MIC), Pore ΔtolC (ΔtolC-Pore; Table 10, with pore, technical duplicate): 3.125 µg/mL
Fold changes of MICs (EKO-35-Pore; EKO-35-Pore compared to EKO-35-Pore (reference)): 1 fold
MIC (EKO-35-Pore; Table 10, with pore, read-out: Minimum inhibitory concentration (MIC), Pore EKO-35): 0.781 µg/mL
MIC (EKO-35-Pore; Table 14A, porinated, read-out: Minimum inhibitory concentration, EKO-35-Pore): 0.781 µg/mL
Fold changes of MICs (EKO-35 araC::acrB Pore; EKO-35 araC::acr-B Pore compared to EKO-35-Pore): 1 fold
MIC (EKO-35 araC::acrB Pore; Escherichia coli, Table 14A, porinated, technical duplicate, read-out: Minimum inhibitory concentration, EKO-35 araC::acrB Pore): 0.781 µg/mL
Fold changes of MICs ([2]; EKO-35 araC::acrBD408A Pore compared to EKO-35-Pore): 1 fold
MIC ([2]; Escherichia coli, EKO-35 araC::acrBD408A Pore, technical duplicate, read-out: Minimum inhibitory concentration): 0.781 µg/mL
Fold changes of MICs (EKO-35 araC::acrD Pore; EKO-35 araC::acrD Pore compared to EKO-35-Pore): 1 fold
MIC (EKO-35 araC::acrD Pore; Escherichia coli, Table 14A, porinated, technical duplicate, read-out: Minimum inhibitory concentration, EKO-35 araC::acrD Pore): 0.781 µg/mL
Fold changes of MICs (EKO-35 araC::acrEF Pore; EKO-35 araC::acrEF Pore compared to EKO-35-Pore): 2 fold
MIC (EKO-35 araC::acrEF Pore; Escherichia coli, Table 14A, porinated, technical duplicate, read-out: Minimum inhibitory concentration, EKO-35 araC::acrEF Pore): 1.56 µg/mL
Fold changes of MICs (EKO-35 araC::emrAB Pore; EKO-35 araC::emrAB Pore compared to EKO-35-Pore): 2 fold
MIC (EKO-35 araC::emrAB Pore; Escherichia coli, EKO-35 araC::emrAB Pore, technical duplicate, read-out: Minimum inhibitory concentration): 1.56 µg/mL
Fold changes of MICs (EKO-35 araC::emrKY Pore; EKO-35 araC::emrKY Pore compared to EKO-35-Pore): 1 fold
MIC (EKO-35 araC::emrKY Pore; Escherichia coli, EKO-35 araC::emrKY Pore, technical duplicate, read-out: Minimum inhibitory concentration): 0.781 µg/mL
Fold changes of MICs (EKO-35 araC::macAB Pore; EKO-35 araC::macAB Pore compared to EKO-35-Pore): 1 fold
MIC (EKO-35 araC::macAB Pore; Escherichia coli, EKO-35 araC::macAB Pore, technical duplicate, read-out: Minimum inhibitory concentration): 0.781 µg/mL
Fold changes of MICs (EKO-35 araC::mdtBC Pore; EKO-35 araC::mdtBC Pore compared to EKO-35-Pore): 1 fold
MIC (EKO-35 araC::mdtBC Pore; Escherichia coli, EKO-35 araC::mdtBC Pore, technical duplicate, read-out: Minimum inhibitory concentration): 0.781 µg/mL
Fold changes of MICs (EKO-35 araC::mdtEF Pore; EKO-35 araC::mdtEF Pore compared to EKO-35-Pore): 1 fold
MIC (EKO-35 araC::mdtEF Pore; Escherichia coli, Table 14A, porinated, technical duplicate, read-out: Minimum inhibitory concentration, EKO-35 araC::mdtEF Pore): 0.781 µg/mL
Fold changes of MICs (EKO-35 araC::mexCD Pore; EKO-35 araC::mexCD Pore compared to EKO-35-Pore): 2 fold
MIC (EKO-35 araC::mexCD Pore; Escherichia coli, EKO-35 araC::mexCD Pore, technical duplicate, read-out: Minimum inhibitory concentration): 1.56 µg/mL
